System: E. faecalis V583 VRE
Type: cell-based, Enterococcus faecalis
Source text: The insert depicts the clot model.
E. faecalis V583 (VRE) is an example of a vancomycin resistant E. faecalis that was announced by the Centers for Disease Control (CDC) as one of the major bacterial threats today.

SMILES: CN[C@H](CC(C)C)C(=O)N[C@H]1C(=O)N[C@@H](CC(N)=O)C(=O)N[C@H]2C(=O)N[C@H]3C(=O)N[C@H](C(=O)N[C@H](C(=O)O)c4cc(O)cc(O)c4-c4cc3ccc4O)[C@H](O)c3ccc(c(Cl)c3)Oc3cc2cc(c3O[C@@H]2O[C@H](CO)[C@@H](O)[C@H](O)[C@H]2O[C@H]2C[C@](C)(N)[C@H](O)[C@H](C)O2)Oc2ccc(cc2Cl)[C@H]1O [vancomycin]
- colony growth on agar plate from seeded culture aliquots (24 hours incubation in 37 °C): growth was observed
- effect on growth and viability (EFLK1 2.5×10^7 phages/ml, vancomycin 15 μg/ml): somewhat affects its growth and viability

— patent US20170281700A1, “PHAGE THERAPY FOR TARGETING ENTEROCOCCI” (priority 2014, published 2017)
